The source made the active and inactive calls. No cut-off for these calls is given here.
Test system: MCF7
Experiment: Cytotoxicity against human MCF7 cells assessed as reduction in cell viability incubated for 48 hrs by MTT assay
Type: functional, cell-based
Settings: MCF7, 48 h

Structure (SMILES) | IC50 [µM]
O=C1c2cccc3c(N4CC[C@@H](O)C4)ccc(c23)C(=O)N1CCCNCCNCCCN1C(=O)c2cccc3c(N4CC[C@@H](O)C4)ccc(c23)C1=O | 74.6
CN(C)CCN1C(=O)c2cccc3cc(N)cc(c23)C1=O [AMONAFIDE] | 6.79
Cl.Cl.Cl.Cl.O=C1c2cccc3c(N4CCN(CCO)CC4)ccc(c23)C(=O)N1CCCNCCNCCCN1C(=O)c2cccc3c(N4CCN(CCO)CC4)ccc(c23)C1=O | 20
O=C1c2cccc3c(N4CCC[C@@H]4CO)ccc(c23)C(=O)N1CCCNCCNCCCN1C(=O)c2cccc3c(N4CCC[C@@H]4CO)ccc(c23)C1=O | 93.5

Test system: HeLa
Experiment: Cell cycle arrest in human HeLa cells assessed as accumulation at S phase at 2.5 uM incubated for 12 hrs by propidium iodide staining based flow cytometry (reference value: 27.8%)
Type: functional
Settings: not given

Structure (SMILES) | Activity [%]
Cl.Cl.Cl.Cl.O=C1c2cccc3c(N4CCN(CCO)CC4)ccc(c23)C(=O)N1CCCNCCNCCCN1C(=O)c2cccc3c(N4CCN(CCO)CC4)ccc(c23)C1=O | 40.2

Test system: HeLa
Experiment: Cell cycle arrest in human HeLa cells assessed as accumulation at G2 phase at 5 uM incubated for 12 hrs by propidium iodide staining based flow cytometry (reference value: 7%)
Type: functional
Settings: not given

Structure (SMILES) | Activity [%]
Cl.Cl.Cl.Cl.O=C1c2cccc3c(N4CCN(CCO)CC4)ccc(c23)C(=O)N1CCCNCCNCCCN1C(=O)c2cccc3c(N4CCN(CCO)CC4)ccc(c23)C1=O | 4.3

Test system: Calf thymus DNA
Experiment: Binding affinity to calf thymus DNA assessed as increase in intensity of positive band at 275 nm at 8 uM to 40 uM by CD spectroscopy
Type: nucleic-acid assay
Settings: Bos taurus

Structure (SMILES) | Activity
Cl.Cl.Cl.Cl.O=C1c2cccc3c(N4CCN(CCO)CC4)ccc(c23)C(=O)N1CCCNCCNCCCN1C(=O)c2cccc3c(N4CCN(CCO)CC4)ccc(c23)C1=O | Active

Test system: Calf thymus DNA
Experiment: Binding affinity to calf thymus DNA assessed as increase in compound fluorescence intensity at 1 x 10^-5 M up to 1.4 x 10^-4M DNA by fluorescence spectroscopy
Type: nucleic-acid assay
Settings: Bos taurus

Structure (SMILES) | Activity
Cl.Cl.Cl.Cl.O=C1c2cccc3c(N4CCN(CCO)CC4)ccc(c23)C(=O)N1CCCNCCNCCCN1C(=O)c2cccc3c(N4CCN(CCO)CC4)ccc(c23)C1=O | Active

Test system: HeLa
Experiment: Cytotoxicity against human HeLa cells assessed as reduction in cell viability incubated for 48 hrs by MTT assay
Type: functional, cell-based
Settings: not given

Structure (SMILES) | IC50 [µM]
O=C1c2cccc3c(N4CC[C@@H](O)C4)ccc(c23)C(=O)N1CCCNCCNCCCN1C(=O)c2cccc3c(N4CC[C@@H](O)C4)ccc(c23)C1=O | 45.4
CN(C)CCN1C(=O)c2cccc3cc(N)cc(c23)C1=O [AMONAFIDE] | 3.41
Cl.Cl.Cl.Cl.O=C1c2cccc3c(N4CCN(CCO)CC4)ccc(c23)C(=O)N1CCCNCCNCCCN1C(=O)c2cccc3c(N4CCN(CCO)CC4)ccc(c23)C1=O | 2.73
O=C1c2cccc3c(N4CCC[C@@H]4CO)ccc(c23)C(=O)N1CCCNCCNCCCN1C(=O)c2cccc3c(N4CCC[C@@H]4CO)ccc(c23)C1=O | 89.2

Test system: Calf thymus DNA
Experiment: Binding affinity to calf thymus DNA assessed as induction of bathochromic shift of maximum absorption peaks at 1 x 10^-5 M by UV-Visible spectroscopy (reference value: 426 nanometer)
Type: nucleic-acid assay
Settings: Bos taurus

Structure (SMILES) | Activity
Cl.Cl.Cl.Cl.O=C1c2cccc3c(N4CCN(CCO)CC4)ccc(c23)C(=O)N1CCCNCCNCCCN1C(=O)c2cccc3c(N4CCN(CCO)CC4)ccc(c23)C1=O | inactive

Test system: HeLa
Experiment: Cell cycle arrest in human HeLa cells assessed as accumulation at G2 phase at 2.5 uM incubated for 12 hrs by propidium iodide staining based flow cytometry (reference value: 7%)
Type: functional
Settings: not given

Structure (SMILES) | Activity [%]
Cl.Cl.Cl.Cl.O=C1c2cccc3c(N4CCN(CCO)CC4)ccc(c23)C(=O)N1CCCNCCNCCCN1C(=O)c2cccc3c(N4CCN(CCO)CC4)ccc(c23)C1=O | 10.9

Test system: MGC-803
Experiment: Cytotoxicity against human MGC803 cells assessed as reduction in cell viability incubated for 48 hrs by MTT assay
Type: functional, cell-based
Settings: MGC-803, 48 h

Structure (SMILES) | IC50 [µM]
O=C1c2cccc3c(N4CC[C@@H](O)C4)ccc(c23)C(=O)N1CCCNCCNCCCN1C(=O)c2cccc3c(N4CC[C@@H](O)C4)ccc(c23)C1=O | 9.41
CN(C)CCN1C(=O)c2cccc3cc(N)cc(c23)C1=O [AMONAFIDE] | 3.23
Cl.Cl.Cl.Cl.O=C1c2cccc3c(N4CCN(CCO)CC4)ccc(c23)C(=O)N1CCCNCCNCCCN1C(=O)c2cccc3c(N4CCN(CCO)CC4)ccc(c23)C1=O | 1.6
O=C1c2cccc3c(N4CCC[C@@H]4CO)ccc(c23)C(=O)N1CCCNCCNCCCN1C(=O)c2cccc3c(N4CCC[C@@H]4CO)ccc(c23)C1=O | 6.41

Test system: A549
Experiment: Cytotoxicity against human A549 cells assessed as reduction in cell viability incubated for 48 hrs by MTT assay
Type: functional, cell-based
Settings: A549, 48 h

Structure (SMILES) | IC50 [µM]
O=C1c2cccc3c(N4CC[C@@H](O)C4)ccc(c23)C(=O)N1CCCNCCNCCCN1C(=O)c2cccc3c(N4CC[C@@H](O)C4)ccc(c23)C1=O | 23
CN(C)CCN1C(=O)c2cccc3cc(N)cc(c23)C1=O [AMONAFIDE] | 2
Cl.Cl.Cl.Cl.O=C1c2cccc3c(N4CCN(CCO)CC4)ccc(c23)C(=O)N1CCCNCCNCCCN1C(=O)c2cccc3c(N4CCN(CCO)CC4)ccc(c23)C1=O | 2.59
O=C1c2cccc3c(N4CCC[C@@H]4CO)ccc(c23)C(=O)N1CCCNCCNCCCN1C(=O)c2cccc3c(N4CCC[C@@H]4CO)ccc(c23)C1=O | 72.6

Test system: Calf thymus DNA
Experiment: Binding affinity to calf thymus DNA assessed as induction of ICD signal changes at 8 uM to 40 uM by CD spectroscopy
Type: nucleic-acid assay
Settings: Bos taurus

Structure (SMILES) | Activity
Cl.Cl.Cl.Cl.O=C1c2cccc3c(N4CCN(CCO)CC4)ccc(c23)C(=O)N1CCCNCCNCCCN1C(=O)c2cccc3c(N4CCN(CCO)CC4)ccc(c23)C1=O | Active

Test system: HeLa
Experiment: Cell cycle arrest in human HeLa cells assessed as accumulation at S phase at 5 uM incubated for 12 hrs by propidium iodide staining based flow cytometry (reference value: 27.8%)
Type: functional
Settings: not given

Structure (SMILES) | Activity [%]
Cl.Cl.Cl.Cl.O=C1c2cccc3c(N4CCN(CCO)CC4)ccc(c23)C(=O)N1CCCNCCNCCCN1C(=O)c2cccc3c(N4CCN(CCO)CC4)ccc(c23)C1=O | 49.7

Test system: not listed separately
Experiment: Drug accumulation in lysosome of human HeLa cells at 5 uM incubated for 1 hr by lysososmal tracker DND-99 based confocal microscopy
Type: ADME, subcellular
Settings: not given

Structure (SMILES) | Drug uptake
Cl.Cl.Cl.Cl.O=C1c2cccc3c(N4CCN(CCO)CC4)ccc(c23)C(=O)N1CCCNCCNCCCN1C(=O)c2cccc3c(N4CCN(CCO)CC4)ccc(c23)C1=O | Active

Test system: Calf thymus DNA
Experiment: Binding affinity to calf thymus DNA assessed as increase in […] shift at 1 x 10^-5 M by fluorescence spectroscopy (reference value: 542 nanometer)
Type: nucleic-acid assay
Settings: Bos taurus

Structure (SMILES) | Activity [nm]
Cl.Cl.Cl.Cl.O=C1c2cccc3c(N4CCN(CCO)CC4)ccc(c23)C(=O)N1CCCNCCNCCCN1C(=O)c2cccc3c(N4CCN(CCO)CC4)ccc(c23)C1=O | 528

Test system: HeLa
Experiment: Cell cycle arrest in human HeLa cells assessed as accumulation at G2 phase at 7.5 uM incubated for 12 hrs by propidium iodide staining based flow cytometry (reference value: 7%)
Type: functional
Settings: not given

Structure (SMILES) | Activity [%]
Cl.Cl.Cl.Cl.O=C1c2cccc3c(N4CCN(CCO)CC4)ccc(c23)C(=O)N1CCCNCCNCCCN1C(=O)c2cccc3c(N4CCN(CCO)CC4)ccc(c23)C1=O | 3.7

Test system: Calf thymus DNA
Experiment: Binding affinity to calf thymus DNA assessed as change in melting temperature at 5 uM
Type: nucleic-acid assay
Settings: Bos taurus

Structure (SMILES) | ΔTm [°C]
Cl.Cl.Cl.Cl.O=C1c2cccc3c(N4CCN(CCO)CC4)ccc(c23)C(=O)N1CCCNCCNCCCN1C(=O)c2cccc3c(N4CCN(CCO)CC4)ccc(c23)C1=O | 14.3

Test system: Calf thymus DNA
Experiment: Binding affinity to calf thymus DNA assessed as reduction in compound self absorption intensity at 1 x 10^-5 M by UV-Visible spectroscopy
Type: nucleic-acid assay
Settings: Bos taurus

Structure (SMILES) | Activity
Cl.Cl.Cl.Cl.O=C1c2cccc3c(N4CCN(CCO)CC4)ccc(c23)C(=O)N1CCCNCCNCCCN1C(=O)c2cccc3c(N4CCN(CCO)CC4)ccc(c23)C1=O | Active

Test system: HeLa
Experiment: Cell cycle arrest in human HeLa cells assessed as accumulation at G1 phase at 2.5 uM incubated for 12 hrs by propidium iodide staining based flow cytometry (reference value: 65.2%)
Type: functional
Settings: not given

Structure (SMILES) | Activity [%]
Cl.Cl.Cl.Cl.O=C1c2cccc3c(N4CCN(CCO)CC4)ccc(c23)C(=O)N1CCCNCCNCCCN1C(=O)c2cccc3c(N4CCN(CCO)CC4)ccc(c23)C1=O | 48.9

Test system: HeLa
Experiment: Cell cycle arrest in human HeLa cells assessed as accumulation at G1 phase at 7.5 uM incubated for 12 hrs by propidium iodide staining based flow cytometry (reference value: 65.2%)
Type: functional
Settings: not given

Structure (SMILES) | Activity [%]
Cl.Cl.Cl.Cl.O=C1c2cccc3c(N4CCN(CCO)CC4)ccc(c23)C(=O)N1CCCNCCNCCCN1C(=O)c2cccc3c(N4CCN(CCO)CC4)ccc(c23)C1=O | 42.6

Test system: HeLa
Experiment: Cell cycle arrest in human HeLa cells assessed as accumulation at G1 phase at 5 uM incubated for 12 hrs by propidium iodide staining based flow cytometry (reference value: 65.2%)
Type: functional
Settings: not given

Structure (SMILES) | Activity [%]
Cl.Cl.Cl.Cl.O=C1c2cccc3c(N4CCN(CCO)CC4)ccc(c23)C(=O)N1CCCNCCNCCCN1C(=O)c2cccc3c(N4CCN(CCO)CC4)ccc(c23)C1=O | 46

Test system: HeLa
Experiment: Cell cycle arrest in human HeLa cells assessed as accumulation at S phase at 7.5 uM incubated for 12 hrs by propidium iodide staining based flow cytometry (reference value: 27.8%)
Type: functional
Settings: not given

Structure (SMILES) | Activity [%]
Cl.Cl.Cl.Cl.O=C1c2cccc3c(N4CCN(CCO)CC4)ccc(c23)C(=O)N1CCCNCCNCCCN1C(=O)c2cccc3c(N4CCN(CCO)CC4)ccc(c23)C1=O | 53.87

Test system: Calf thymus DNA
Experiment: Binding affinity to calf thymus DNA at 1 x 10^-5 M by UV-Visible spectroscopy
Type: nucleic-acid assay
Settings: Bos taurus

Structure (SMILES) | K [×10⁵ /M]
Cl.Cl.Cl.Cl.O=C1c2cccc3c(N4CCN(CCO)CC4)ccc(c23)C(=O)N1CCCNCCNCCCN1C(=O)c2cccc3c(N4CCN(CCO)CC4)ccc(c23)C1=O | 2.6

From ChEMBL document CHEMBL4184215, “Lysosomes-targeting imaging and anticancer properties of novel bis-naphthalimide derivatives” (Bioorg Med Chem Lett, 2018)
